From patent US11046647B2, “Activators of the unfolded protein response” (The Board of Trustees of the University of Illinois, priority 2018, dated 2021)

What was measured:
T47D, TYS and TDG cells = assay: MTS proliferation assay (4 days), T47D, TYS and TDG; assay type: cell-based, human
Experimental: FIG. 30 compares the ability of BHPI and test compounds to inhibit proliferation of T47D, TYS and TDG cells. T47D cells were in medium containing 10 FBS (which contains estrogen), TYS-4 and TDG-1 cells were in medium containing 10% cd-FBS (estrogen depleted). Cells are plated at 2,000 cells/well in 96 well plates. After 24 hours in medium containing FBS or charcoal-dextran treated FBS (depleted of endogenous estrogens), the indicated concentration of each compound (in DMSO at 1/1000th of the volume of medium) was added. After 2 days the medium was changed, and the compounds were added again. After 2 additional days (4 days total) MTS assays are used to evaluate cell proliferation. (n=6 ±S.E.M.).

[1] = tested on: ERα Negative MCF-10A cells; assay: Trypan Blue exclusion cell death assay, MCF-10A; assay type: cell-based; conditions: 75 nM, 24 hours
Description: (§1) TRYPAN BLUE: For decades, viable cells have been measured by their ability to exclude the dye Trypan Blue. […] Dead cells, which have lost membrane integrity, take up the dye and are blue. Thus, the percentage of dead cells is the percentage of cells that are Trypan Blue positive out of the total cell population. Quantitative assessment of Trypan Blue uptake uses a cell counter from Fisher. Since the assay is instrument based, there is no observer bias in determining the percentage of Trypan Blue positive cells.
(§2) TRYPAN BLUE ASSAYS: Assays are performed on cells in 6 well plates: 300,000 cells are plated in each well of a 6-well plate in 3 ml of medium. After 24 hours, the DMSO vehicle or the indicated compound is added (in 1000th of the vol.) The cells incubated for an additional 24 hours, and then harvested in 0.25 ml of trypsin, followed after harvest by 0.75 ml of medium. The cells are spun down and resuspended in 100-200 μl of medium left that is over the cell pellet (resuspend cells by pipetting up and down a few times). Add 10 μl to 10 μl of trypan blue. Then 10 μl is inserted into the counting slide. After inserting the slide into the Fisher TC20 counting is automatic (these many cells are needed because an accurate ratio of Trypan Blue positive to Trypan Blue negative cells requires about 200 cells in the field the instrument counts).
In FIG. 28, neither the test compounds nor BHPI kill non-tumorigenic ERα Negative MCF-10A breast cells. ERα Negative MCF-10A cells were maintained for 24 hours in DMSO vehicle or 75 nM of BHPI or 75 nM of each of the indicated test compounds: 4, 6 and 105. Cell death was determined using the instrument-based Trypan Blue exclusion assay. (n=3±SEM).

TDG cells = assay: Trypan Blue exclusion cell death assay, TDG / TDG-Luc; assay type: cell-based, human; conditions: 24 hours
Description: as §1, §2
The Trypan Blue cell death assay was used to evaluate the ability of the active enantiomer of C-105 [(−)-105] to kill ERα positive TDG-Luc cells. For all studies, 300,000 TDG-Luc cells/well in 10% FBS were plated in a 6-well plate in triplicate. 24 hours after plating, the indicated concentrations the active enantiomer of (−)-105, or BHPI (top) ICI, or OHT (Lower left) or (+)-105 (lower right) were added. After 24 hours, the cells were harvested, and the % dead cells was determined by automated Trypan Blue exclusion using the Countess II automated hemocytometer. Percentage of viable cells was calculated by doing 100-(Cell Death %). (n=3±SEM).
TDG cells were incubated for 24 hours with 75 nM of BHPI or 75 nM of each of the indicated test compounds: 4, 6 and (±)-105 (enantiomers not separated). Cell death was determined using the instrument-based Trypan Blue exclusion assay. Structures are in the Synthesis section. […] (n=3±SEM).

[2] = tested on: TYS and TDG breast cancer cells; assay: Killing of TYS and TDG breast cancer cells by endocrine therapy drugs; assay type: cell-based, human
MCF-7 tumors = assay: MCF-7 orthotopic tumor model; assay type: in vivo, mouse; conditions: large established MCF-7 tumors; SERK-F6 10 or 40 mg/kg p.o. daily; fulv. 5 mg/mouse s.c. weekly
Experimental: FIG. 39. SERK-F6 eradicates wild-type ERα tumors via hyperactivation of aUPR. a, MCF-7 orthotopic tumors were established in Nu/J ovariectomized mice supplemented with a 60 day E2 pellet (0.36 mg) and grown to ˜400 mm^3 (28 days to establish), randomized, then treated with vehicle daily (n=3), vehicle weekly (n=3), fulv. weekly (5 mg/mouse, s.c., n=6), SERK-F6 daily (10 or 40 mg/kg p.o.). Vehicle arms were averaged. p values: *: p≤0.05, **: p≤0.01, ***: p≤0.001, ****: p≤0.0001. Tumor images were taken at the end of the study (day 21) and are representative of all tumors (n=6). b-e, MCF-7 cells were orthotopically bi-laterally grafted and tumors were grown until total tumor burden was ˜400 mm^3 prior to daily treatment with vehicle or SERK-F6 (40 mg/kg p.o.). Mice (n=5 per arm) were sacrificed after 3 days (b,c) and 7 days (d,e) and tumors harvested. […] Vinculin (Vin) was used as a loading control. […] Error bars represent S.E.M.
To probe the efficacy of SERK-F6 for killing ERα positive tumors, large MCF-7 tumors were grown and then intervened with therapy. […] The mice were then sacrificed prior to complete tumor eradication.

OVCAR-3 cells = conditions: OVCAR-3 orthotopic xenograft
TYS cells = assay: Trypan Blue exclusion cell death assay, TYS / TYS-Luc; assay type: cell-based, human; conditions: 24 hours
Description: as §1, §2
The Trypan Blue cell death assay was used to evaluate the ability of the active enantiomer of 105 (−) [(−)-105] to kill ERα positive MCF-7 and TYS-Luc, human breast cancer cells. 300,000 T47D cells/well in 10% FBS were plated in a 6-well plate in triplicate. 24 hours after plating, the indicated concentrations of BHPI, or the active enantiomer 105 (−) of C-105 [(−)-105] was added. After 24 hours, the cells were harvested, and the % dead cells was determined by automated Trypan Blue exclusion using the Countess II automated hemocytometer. Percentage of viable cells was calculated by doing 100-(Cell Death %). (n=3±SEM).
TYS cells were incubated for 24 hours with 35 nM of BHPI or 35 nM of each of the indicated test compounds: 2, 4, and 105. Cell death was determined using the instrument-based Trypan Blue exclusion assay.
TYS cells were incubated for 24 hours with 50 nM of BHPI or 50 nM of each of the indicated test compounds: 4, 6 and 105. Cell death was determined using the instrument-based Trypan Blue exclusion assay. (n=3±SEM).

T47D cells [3] = assay: Trypan Blue exclusion cell death assay, T47D / T47D-Luc; assay type: cell-based, human; conditions: 75 nM, 24 hours
Description: as §1
as §2, with “After inserting the slide into the Fisher TC20 counting is automatic (these many cells are needed because an accurate ratio of Trypan Blue positive to Trypan Blue negative cells requires about 200 cells in the field the instrument counts).” left out
The Trypan Blue cell death assay was used to compare the ability of the active (−) enantiomer of C-105 and BHPI to kill estrogen receptor α (ERα) positive T47D, human breast cancer cells expressing luciferase (T47D-Luc cells). […] After 24 hours, the cells were harvested, and the % dead cells was determined by automated Trypan Blue exclusion using the Countess II automated hemocytometer. Percentage of viable cells was calculated by doing 100-(Cell Death %). […]
T47D cells were incubated for 24 hours with 75 nM of BHPI or 75 nM of each of the indicated test compounds: 4 and 6. Cell death was determined using the instrument-based Trypan Blue exclusion assay. […]
T47D cells were treated for 24 hours with 100 nM BHPI, or with 100 nM of each of the test compounds: 6, 8, and 105. […] Cell death was determined using the instrument-based Trypan Blue exclusion assay. […]

T47D cells [4] = conditions: 24 hours; up to 1,000 nM; FACS annexin V-FITC/PI
Experimental: One such change is loss of plasma membrane polarity. This is monitored using Annexin V. Dying cells also take up the dye propidium iodide. Propidium iodide (PI) fluoresces when it is intercalated into DNA. These assays monitor cells at specific stages of cell death.
FLOW CYTOMETRY (FITC) ASSAYS: Cells were seeded in 12-well plates, 75,000 cells/well, and allowed to adhere overnight. The next day, the indicated concentrations of raptinal (positive control), (−)-105, (±)-105, and (+)-105 were added and allowed to incubate at 37° C. for 24 hours (Final Volume: 1 ml, 0.1% DMSO). After incubation, cells were harvested and resuspended in 350 μl of cold Annexin binding buffer (10 mM HEPES, 140 mM NaCl, 2.5 mM CaCl2, pH 7.4) premixed with Annexin V-FITC and PI dyes. Samples were analyzed on a BD Biosciences LSRII flow cytometer, and data analysis was performed using FSC Express Version 5-6. Cell death was assessed relative to a DMSO treated control.
T47D, human breast cancer cells were plated at 75,000 cells/well. The next day, DMSO vehicle, 10 μM raptinal (control for 100% cell death), or 0, 50, 100 500 and 1,000 nM of BHPI or (±)-105, or 1,000 nM ICI/fulvestrant or 1,000 nM OHT was added. After 24 hours viable cells were determined by FACS using annexin V-FITC and propidium iodide dyes. (n=3 independent experiments ±SEM).
75,000 ERα positive T47D, human breast cancer cells, were plated/well. The next day, DMSO vehicle, 10 μM raptinal (control for 100% cell death), or 100 500 and 1,000 nM of (+)-105, or (−)-105 was added. After 24 hours viable cells were determined by FACS using annexin V-FITC and propidium iodide dyes. (n=1).

Cc1cccc2c1NC(=O)C2(c1ccc(O)cc1)c1ccc(OC(F)(F)F)cc1 (stereo not shown) [Compound 6, 3-(4-hydroxyphenyl)-7-methyl-3-(4-(trifluoromethoxy)phenyl)indolin-2-one]
effectiveness in killing compared with BHPI (T47D, TYS and TDG cells): more effective than BHPI | cell death of MCF-10A cells [1]: neither BHPI nor any of the test compounds induce significant death

C[C@]12CC[C@@H]3c4ccc(O)cc4C[C@@H](CCCCCCCCC[S+]([O-])CCCC(F)(F)C(F)(F)F)[C@H]3[C@@H]1CC[C@@H]2O (stereo partly shown) [fulvestrant, reference compound]
killing of TDG-Luc cells, dose response (TDG cells): do not kill | ability to kill TYS and TDG cells [2]: no ability at all to kill | tumor response (MCF-7 tumors): dramatic effects against these large and established tumors are not obtained

CC(=O)O[C@H]1C(=O)[C@@]2(C)[C@H]([C@H](OC(=O)c3ccccc3)[C@]3(O)C[C@H](OC(=O)[C@H](O)[C@@H](NC(=O)c4ccccc4)c4ccccc4)C(C)=C1C3(C)C)[C@]1(OC(C)=O)CO[C@@H]1C[C@@H]2O [paclitaxel]
tumor growth / detectability (OVCAR-3 cells): ineffective

COc1ccc(C2(c3ccc(O)cc3)C(=O)Nc3c(C(F)(F)F)cccc32)cc1 (stereo not shown) [Compound 4, 3-(4-hydroxyphenyl)-3-(4-methoxyphenyl)-7-(trifluoromethyl)indolin-2-one]
ability to kill TDG cells compared to BHPI (TDG cells; 75 nM): greatly increased ability to kill | effectiveness in killing compared with BHPI (T47D, TYS and TDG cells): more effective than BHPI | ability to kill TYS cells compared to BHPI (TYS cells; 35 nM): greatly increased ability to kill | ability to kill TYS cells compared to BHPI (TYS cells; 50 nM): increased ability to kill | cell death of MCF-10A cells [1]: neither BHPI nor any of the test compounds induce significant death | ability to kill T47D cells compared to BHPI (T47D cells [3]): greatly increased ability to kill

COc1ccc(C2(c3ccc(O)cc3)C(=O)Nc3c(C)cccc32)cc1 (stereo not shown) [Compound 2, 3-(4-hydroxyphenyl)-3-(4-methoxyphenyl)-7-methylindolin-2-one]
effectiveness in killing compared with BHPI (T47D, TYS and TDG cells): more effective than BHPI

CC/C(=C(\c1ccccc1)c1ccc(OCCN(C)C)cc1)c1ccccc1 [tamoxifen]
ability to kill TYS and TDG cells [2]: no ability at all to kill

CC/C(=C(\c1ccc(O)cc1)c1ccc(OCCN(C)C)cc1)c1ccccc1 [OHT, z-4-hydroxytamoxifen, reference compound]
killing of TDG-Luc cells, dose response (TDG cells): do not kill | cytotoxic versus cytostatic phenotype (T47D cells [4]): cytostatic
